The subject of one assay is HCC1395. In words: CELLTITER GLO cell proliferation assay (Example 6). Format: cell-based. To be noted: Homo sapiens, Table 4, read-out: IC50 potency HCC1395.
A further assay deals with HCT-116. In words: CELLTITER GLO cell proliferation assay (Example 6). Format: cell-based. To be noted: Homo sapiens, HCT-116; Table 4; read-out: IC50 potency HCT-116.
For the next assay, the system named is Jurkat. In words: CELLTITER GLO cell proliferation assay (Example 6). The format is cell-based. To be noted: Homo sapiens, Table 4, read-out: IC50 potency Jurkat.
The next assay has as its target T1, DT Diaphorase (Homo sapiens, UniProt P15559).
T1 construct: purchased Sigma D1315
In words: DT diaphorase activated payload release (LC-MS MRM quant). The format is biochemical. The following applies: after 90 minutes incubation. As to the method: In addition to the potency evaluation, the release of PBD dimer diaphorase prodrug 1 was evaluated. The release was measured to be 12% after 90 minutes incubation according to the following method. First, a master mix reaction was prepared containing 0.5 uM of the […], […] NADPH […]. Second, the reaction mix was incubated at room temperature for 5, 30, 90 min. […] Finally, data was analyzed using MultiQuant analysis software and standards were calculated using GraphPad Prism 6 linear regression fit.
An in vitro DT diaphorase activated drug release assay was used to measure NADPH depletion. DT diaphorase activated release of Norfloxacin and Payload (PBD) was measured by the in vitro depletion of NADPH. The assay method was modified from the absorbance measurement of NADPH at A340 (Osman et. al, Chemico-Biological Interactions 147 (2004) 99-108) due to the interference of compounds. The depletion of NADPH was measured by monitoring the decrease of fluorescence intensity of NADPH at 480 nm after being excited at 340 nM. […] The fluorescence intensity (RFU) of DNAPH was recorded on M1000 plate reader (Tecan) with excitation at 340 nm and emission at 480 nm. For data analysis, data was analyzed and plotted using Prism GraphPad 6. […]

The next assay relates to KPL-4 Cell line. In words: Cell viability, DTD-activated quinone prodrugs (Example 15). Format: cell-based. As to the method:
(§1) The toxicity of PBD dimer diaphorase prodrug 1, PBD monomer diaphorase prodrug 2, PBD dimer control 1 and PBD monomer control 1 were evaluated against KPL-4 and WSU cell lines for cell viability. The KPL-4 cell line is was a high DTD cell line characterized by NQO1 nRPKM of 839 and the WSU cell line was a low DTD cell line characterized by a NQO1 nRPKM of 1.36. The IC50 ratios are based on the prodrug IC50 value relative to the PBD dimer control.

A further assay concerns WSU Cell line. The assay is described as above. Format: cell-based. On the procedure:
as §1

In another assay the test system is SK-BR-3. In words: CellTiter-Glo toxicity, 3 days (Example 7). Format: cell-based. To be noted: Homo sapiens, SK-BR-3, 72 h, read-out: SK-BR-3 IC50 (nM). As to the method: The toxicity of PBD monomer disulfide prodrugs 1 to 4, PBD dimer disulfide prodrugs 1 and 4, PBD monomer control 1 and PBD dimer control 1 were evaluated against SK-BR-3 cell cultures. […] The HER2-positive breast cancer cell line, SK-BR-3, was obtained internally at Genentech after having been verified by sequence analysis. The cells were grown at 37 Celsius in DMEM+10% FBS supplemented with 2 mM L-glutamine for the duration of this assay. On the first day of the experiment, designated “Day −1”, SK-BR-3 cells were harvested from tissue culture flasks, counted, and then seeded into 96-well plates at a concentration of 7,500 cells per well. The next day, designated “Day 0”, cell culture media was removed from the cells and replaced with 100 uL of fresh media containing a serial dilution (1:3) of the compounds in Table 5 below. The plates were then returned to the 37 Celsius incubator and allowed to incubate for 3 days. On “Day 3” of the assay, the plates were removed from the incubator and allowed to equilibrate to room temperature before adding 100 uL of room-temperature CellTiter-Glo reagent (Promega). The plates were then agitated at 300 rpm for 10 minutes. The luminescence signal generated from this reaction was recorded on an Envision plate reader (Perkin-Elmer). The data were arranged in Excel (Microsoft) and graphed in Kaleidagraph (Synergy Software).

The test system of another assay is Igrov-1. In words: CellTiter-Glo toxicity, 4 days (Example 9). Format: cell-based. To be noted: Homo sapiens, IGROV-1, 96 h, 4 days of drug incubation; Table 7A. In outline:
(§2)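 Cells were seeded in 384-well plates, dosed 24 h later and incubated with drug for 4 days. Viability was read as ATP luminescence by CellTiter-Glo and normalised to untreated controls. IC50 is the concentration giving 50% of maximum cell killing.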

The next assay has as its system UACC-257. In words: CellTiter-Glo toxicity, 4 days (Example 9). Format: cell-based. The following applies: Homo sapiens, UACC-257, 96 h, 4 days of drug incubation; Table 7A. Put shortly:
as §2

The subject of the next assay is BJAB. In words: Standard cell panel (Table 7B). The format is cell-based. To be noted: Homo sapiens. From the text:
(§3) PBD dimer control 1 and PBD dimer control 2 were further evaluated in standard cell panels against a number of cell lines.

In another assay the test system is HCC1569 X2. In words: Standard cell panel (Table 7B). The format is cell-based. To be noted: Homo sapiens.
Excerpt: as §3

The test system of another assay is HCC1937. In words: Standard cell panel (Table 7B). The format is cell-based. The following applies: Homo sapiens.
Excerpt: as §3

The subject of a further assay is KPL-4. In words: Standard cell panel (Table 7B). The format is cell-based. To be noted: KPL4.
Excerpt: as §3

A further assay deals with MES-SA/Dx5. In words: Standard cell panel (Table 7B). The format is cell-based. The following applies: Homo sapiens.
Excerpt: as §3

The next assay concerns MES-SA. In words: Standard cell panel (Table 7B). The following applies: Homo sapiens. The format is cell-based.
Excerpt: as §3

The subject of another assay is NCI-H1781. In words: Standard cell panel (Table 7B). Format: cell-based.
Excerpt: as §3

A further assay deals with SW 900. In words: Standard cell panel (Table 7B). The format is cell-based. To be noted: Homo sapiens, SW900.
Excerpt: as §3

The test system of the next assay is T-47D. In words: Standard cell panel (Table 7B). The format is cell-based. The following applies: Homo sapiens, T47D.
Excerpt: as §3

Assay [1] relates to double strand DNA Oligos 1 and 2. In words: DNA oligo binding, LC/MS/UV. To be noted: 100 uM compound, 100 uM DNA, 1 hour, 37 C. As to the method:
For DNA binding determination, the compounds were incubated at 100 μM with 100 μM double strand DNA Oligos 1 and 2 for 1 hour in 10 mM Bis-Tris, pH 7.1 at 37° C. The single strand DNA Oligos (5′-TATAGAATCTATA-3′ and 3′-ATATCTTAGATAT-5′) were synthesized at Genentech. The samples were analyzed by LC/MS/UV (210-450 nm) on Sciex TripleTOF 5600 on a Hypersil Gold C18 column (100×2.1, 1.9 Thermo Scientific). The column was eluted at 0.4 mL/min by a gradient of buffer A (50 mM hexafluoro-isopropanol and 15 mM diisopropylethylamine) to buffer B (50% A and 50% of 1:1 methanol:acetonitrile), 5% 0-0.5 min, 5-25% B 0.5-25 min, 25-95% B 25-40 min, and to 95% B 40-42 min. The % remaining was an average of the starting DNA oligos remaining in incubations (n=2). The products were characterized by LC/MS in a negative ESI ion mode.

A further assay relates to A2058. In words: Standard cell panel (Table 7B). Format: cell-based. The following applies: Homo sapiens.
Excerpt: as §3

The test system of another assay is BJAB/Pgp. In words: Standard cell panel (Table 7B). Format: cell-based. The following applies: Homo sapiens.
Excerpt: as §3

The subject of the next assay is DLD-1. In words: Standard cell panel (Table 7B). Format: cell-based. To be noted: Homo sapiens.
Excerpt: as §3

A further assay relates to HCT 116. In words: Standard cell panel (Table 7B). Format: cell-based. The following applies: Homo sapiens.
Excerpt: as §3

A further assay has as its system HL-60. In words: Standard cell panel (Table 7B). To be noted: Homo sapiens. Format: cell-based.
Excerpt: as §3

Another assay deals with MDA-MB-231. In words: Standard cell panel (Table 7B). Format: cell-based. To be noted: Homo sapiens.
Excerpt: as §3

Read-outs that look alike come from different tables or passages of the source. Where only a bound is given, the exact number is not on record here.

T1 sequence (P15559 whole entry): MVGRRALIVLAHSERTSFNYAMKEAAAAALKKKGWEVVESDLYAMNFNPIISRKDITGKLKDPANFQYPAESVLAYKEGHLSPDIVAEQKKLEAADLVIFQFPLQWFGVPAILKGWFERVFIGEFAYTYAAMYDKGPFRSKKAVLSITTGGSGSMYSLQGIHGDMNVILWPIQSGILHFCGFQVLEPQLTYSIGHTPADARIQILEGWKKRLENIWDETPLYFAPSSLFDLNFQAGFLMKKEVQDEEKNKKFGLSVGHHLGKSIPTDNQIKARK

As to `C=C1C[C@H]2C=Nc3cc(OCCCCCOc4cc5c(cc4OC)C(=O)N4CC(=C)C[C@H]4C(O)N5C(=O)OCc4cc5c(n4C)C(=O)C=C(OC)C5=O)c(OC)cc3C(=O)N2C1` (some centres unmarked) [PBD dimer diaphorase prodrug 1], the IC50 in the assay on HCC1395 turned out to be 14.2 nM; with HCT-116, 21.3 nM; in the assay on Jurkat, 2.05 nM; in the assay on KPL-4 Cell line (KPL4, KPL-4 Cell line (high DTD), Table 10, read-out: IC50 Potency) it was 35.5 nM; in the assay on WSU Cell line (WSU Cell line (low DTD), Table 10, read-out: IC50 Potency) it was 8.56 nM. Moreover, the release at DT Diaphorase is reported as 12%.

In the case of `C=C1C[C@H]2C=Nc3cc(OCCCCCOc4cc5c(cc4OC)C(=O)N4CC(=C)C[C@H]4C=N5)c(OC)cc3C(=O)N2C1` [PBD dimer control 1], the IC50 with SK-BR-3 was 0.144 nM; in the assay on Igrov-1, 0.061 nM; in the assay on UACC-257 it was 0.95 nM; with BJAB, 0.015 nM; in the assay on HCC1569 X2 it was 0.097 nM; with HCC1937, 0.15 nM. Besides, the IC50 in the assay on KPL-4 amounted to 0.053 nM; with MES-SA/Dx5 it was 0.56 nM; in the assay with MES-SA, 0.028 nM; in the assay with NCI-H1781, 0.011 nM; with SW 900, 0.078 nM; in the assay on T-47D, 0.032 nM. Also, the IC50 with KPL-4 Cell line (KPL4, read-out: IC50 Potency (nM)) is 2.09 nM; in the assay on WSU Cell line (read-out: IC50 Potency (nM)) it was 0.2 nM. Besides, in [1], the “% DNA oligo remaining” value is listed as below 1%.

Turning to `C=C1C[C@H]2CNc3cc(OCCCCCOc4cc5c(cc4OC)C(=O)N4CC(=C)C[C@H]4CN5)c(OC)cc3C(=O)N2C1` [PBD dimer control 2], the IC50 in the assay with A2058 is 5.3 nM; in the assay on BJAB/Pgp, 53.7 nM; in the assay with BJAB, 4.9 nM; with DLD-1 it was above 100 nM; with HCT 116, 15 nM; in the assay with HL-60 it was 2.4 nM. For the same molecule, the IC50 in the assay with KPL-4 was 67.4 nM; in the assay with MDA-MB-231 it was 73.2 nM; in the assay with MES-SA/Dx5 it was above 100 nM; with MES-SA it was 10 nM. Also, in [1], the “% DNA oligo remaining” value is listed as 100%.

The values are drawn from US11576979B2, “Pyrrolobenzodiazepine prodrugs and antibody conjugates thereof” (GENENTECH, INC., priority 2016, dated 2023).
